In the NIST ThermoML archive (doi:10.1021/je9000697):

Assay: wn = mass fraction of the nth substance listed
Details: 101 kPa, Liquid

OCCO [1,2-ethanediol] + O
Details | mass density, 298.15 K [kg/m3] | mass density, 303.15 K [kg/m3] | mass density, 308.15 K [kg/m3] | mass density, 318.15 K [kg/m3] | viscosity, 298.15 K [mPa·s] | viscosity, 303.15 K [mPa·s] | viscosity, 308.15 K [mPa·s] | viscosity, 318.15 K [mPa·s]
w1 = 0.1 | 1009.49 | 1007.62 | 1005.57 | 1002.73 | 1.152 | 1.017 | 0.9078 | 0.7381
w1 = 0.2 | 1022.45 | 1020.98 | 1018.5 | 1014.28 | 1.469 | 1.306 | 1.149 | 0.9243
w1 = 0.3 | 1035.7 | 1034.05 | 1031.66 | 1026.73 | 1.903 | 1.657 | 1.462 | 1.164
w1 = 1 | – | 1104.47 | 1100.13 | 1092.15 | 18.64 | 13.86 | 11.66 | 7.453
